Source: patent US10233142B2, “Metabolites of (1R-trans)-N-[[2-(2,3-dihydro-4-benzofuranyl)cyclopropyl]methyl]propanamide” (Vanda Pharmaceuticals, Inc., priority 2012, dated 2019)

Test: 14C-radiolabeled Tasimelteon administered to healthy male subjects; HPLC radio-chromatography of plasma, urine and feces
Assay type: in vivo, human
Settings: for share of the radioactivity of the administered dose in urine: 0-72 h urine samples; for share of the radioactivity of the administered dose in feces: fecal samples; for feces (0-120 h) (% dose) / plasma (% AUC) / urine (0-72 h) (% dose) / total excreta (% dose): healthy male subjects, 100 μCi/100 mg 14C-Tasimelteon; for plasma (% AUC): plasma 0.5-24 h; for total excreta (% dose): urine plus feces; for share of the total plasma radioactivity: plasma samples
Experimental: ^14C-radiolabeled (1R-trans)-N-[[2-(2,3-dihydro-4-benzofuranyl)cyclopropyl]methyl]propanamide was administered to healthy male subjects at a dosage of 100 μCi/100 mg. Plasma, urine, and fecal samples were then collected from subjects at predetermined time intervals following administration (0.5 h, 1 h, 2 h, 8 h, and 24 h for plasma; 0-6 h, 6-12 h, 12-24 h, and 24-72 h for urine; and 0-24 h, 24-48 h, and 48-120 h for feces). Plasma and fecal samples were subjected to methanol extraction to remove proteins. All samples were centrifuged to remove solids prior to HPLC radio-chromatography. Radioactivity in each fraction was determined by Packard TopCount® NXT™ Microplate Scintillation and Luminescence Counter technology. Selected urine, plasma, and fecal extracts were analyzed by LC/MS, coupled with a radioactivity monitor.
The proportionate presence of (1R-trans)-N-[[2-(2,3-dihydro-4-benzofuranyl)cyclopropyl]methyl]propanamide and the M9 and M11 metabolites in plasma, urine, and feces of the subjects is shown below in Table 1.

SMILES	share of the radioactivity of the administered dose in urine	share of the radioactivity of the administered dose in feces	feces (0-120 h) (% dose)	plasma (% AUC)	urine (0-72 h) (% dose)	total excreta (% dose)	share of the total plasma radioactivity
CCC(=O)NC[C@@H]1C[C@H]1c1cccc(O)c1CC(=O)O [M9]	~30%	minor fecal metabolites	0.85 % dose	19.79	29.69 % dose	30.54 % dose	~20%
CCC(=O)NC[C@@H]1C[C@H]1c1cccc(O)c1CCO [M11]	Neither unchanged Tasimelteon nor metabolite M11 were found	–	not detected	3.56	not detected	not detected	approximately 3.5%
CCC(=O)NC[C@@H]1C[C@H]1c1cccc2c1CCO2 [Tasimelteon, (1R-trans)-N-[[2-(2,3-dihydro-4-benzofuranyl)cyclopropyl]methyl]propanamide]	Neither unchanged Tasimelteon nor metabolite M11 were found	minor fecal metabolites	0.04 % dose	8.22	not detected	0.04 % dose	approximately 8%
